Measured values taken from patent US20250340575A1, “4-AMINOPYRROLO[2,1-F][1,2,4]TRIAZINES AND PREPARATION AND USES THEREOF” (Biosplice Therapeutics, Inc., priority 2024, published 2025).

Target: recombinant DYRK1A kinase (Homo sapiens, UniProt Q13627)
Experiment: DYRK1A kinase assay (Ser/Thr 18 peptide Z-lyte FRET)
Type: biochemical
Conditions: DYRK1A 0.25 μg/mL, ATP 15 μM, Ser/Thr peptide 18 4 μM, one hour at room temperature, 11-point dose-response from 10 μM
Description: Representative compounds were screened using the assay procedure for DYRK1A kinase activity as described below.
Each compound was dissolved in DMSO as a 10 mM stock and used to prepare compound source plates. Serial dilution (1:3, 11-point dose-response curves from 10 μM to 0.00016 μM) and compound transfer was performed using the ECHO 550 (Labcyte, Sunnyvale, CA) into 1536-well black-walled round bottom plates (Corning).
The DYRK1A kinase assay was run using the Ser/Thr 18 peptide Z-lyte assay kit according to manufacturer's instructions (Life Technologies—a Division of Thermo-Fisher). This is a non-radioactive assay using fluorescence resonance energy transfer (FRET) between coumarin and fluorescein to detect kinase activity which is represented as a ratio of coumarin emission/fluorescein emission.
Briefly, recombinant DYRK1A kinase, ATP and Ser/Thr peptide 18 were prepared in 1× Kinase buffer to final concentrations of 0.25 μg/mL, 15 μM, and 4 μM respectively. The mixture was allowed to incubate with the representative compounds for one hour at room temperature. All reactions were performed in duplicate. Unphosphorylated (“0% Control”) and phosphorylated (“100% control”) forms of Ser/Thr 18 served as control reactions. Additionally, an 11-point dose-response curve of Staurosporine (1 uM top) was run to serve as a positive compound control.
After incubation, Development Reagent A was diluted in Development Buffer then added to the reaction and allowed to further incubate for one hour at room temperature. The plate was read at Ex 400 Em 455 to detect the coumarin signal and Ex 400 Em 520 to measure the signal (EnVision Multilabel Plate Reader, PerkinElmer).
The Emission ratio (Em) was calculated as a ratio of the coumarin (C) emission signal (at 445 nm)/Fluorescein (F) emission signal (at 520 nm). The percent phosphorylation was then calculated using the following formula: [1−((Em ratio×F100%)−C100%)/((C0%−C100%)+(Em ratio×(F100%−F0%)))]. Dose-response curves were generated, and inhibitory concentration (IC50) values were calculated using non-linear regression curve fit in the Dotmatics' Studies Software (Bishops Stortford, UK).

| Compound | IC50 |
| --- | --- |
| Nc1nc(N[C@@H]2CCN(C3COC3)C[C@@H]2F)nn2ccc(-c3ccc4ncn(CCF)c4n3)c12 [Compound 116, N^2-((3S,4R)-3-Fluoro-1-(oxetan-3-yl)piperidin-4-yl)-5-(3-(2-fluoroethyl)-3H-imidazo[4,5-b]pyridin-5-yl)pyrrolo[2,1-f][1,2,4]triazine-2,4-diamine] | 1.6 nM |
| Cc1nc2ccc(-c3c(F)cn4nc(N[C@@H]5CCN(C)CC5(F)F)nc(N)c34)nc2n1CCF [Compound 146, (R)—N^2-(3,3-Difluoro-1-methylpiperidin-4-yl)-6-fluoro-5-(3-(2-fluoroethyl)-2-methyl-3H-imidazo[4,5-b]pyridin-5-yl)pyrrolo[2,1-f][1,2,4]triazine-2,4-diamine] | 0.8 nM |
| CNc1nc(N[C@H]2CC[C@](C)(O)CC2)nn2cc(F)c(-c3ccc4nc(C)n(CCF)c4n3)c12 [Compound 162, (1r,4r)-4-((6-Fluoro-5-(3-(2-fluoroethyl)-2-methyl-3H-imidazo[4,5-b]pyridin-5-yl)-4-(methylamino)pyrrolo[2,1-f][1,2,4]triazin-2-yl)amino)-1-methylcyclohexan-1-ol] | 3.1 nM |
| CNc1nc(N[C@@H]2CCN(C)CC2(F)F)nn2cc(F)c(-c3ccc4nnn(CC(F)F)c4n3)c12 [Compound 291, (R)—N^2-(3,3-Difluoro-1-methylpiperidin-4-yl)-5-(3-(2,2-difluoroethyl)-3H-[1,2,3]triazolo[4,5-b]pyridin-5-yl)-6-fluoro-N^4-methylpyrrolo[2,1-f][1,2,4]triazine-2,4-diamine] | 1.2 nM |
| CNc1nc(N[C@@H]2CCN(S(C)(=O)=O)CC2(F)F)nn2ccc(-c3ccc4nccn4n3)c12 [Compound 48, (R)—N2-(3,3-Difluoro-1-(methylsulfonyl)piperidin-4-yl)-5-(imidazo[1,2-b]pyridazin-6-yl)-N4-methylpyrrolo[2,1-f][1,2,4]triazine-2,4-diamine] | 2.2 nM |
| CNc1nc(N[C@H]2CC[C@](C)(O)CC2)nn2cc(F)c(-c3ccc4nnn(CC(F)F)c4n3)c12 [Compound 286, (1r,4r)-4-((5-(3-(2,2-Difluoroethyl)-3H-[1,2,3]triazolo[4,5-b]pyridin-5-yl)-6-fluoro-4-(methylamino)pyrrolo[2,1-f][1,2,4]triazin-2-yl)amino)-1-methylcyclohexan-1-ol] | 3.6 nM |
| C[C@]1(O)CC[C@H](Nc2nc(N)c3c(-c4ccc5ncn(CC(F)(F)F)c5n4)ccn3n2)CC1 [Compound 123, (1r,4r)-4-((4-Amino-5-(3-(2,2,2-trifluoroethyl)-3H-imidazo[4,5-b]pyridin-5-yl)pyrrolo[2,1-f][1,2,4]triazin-2-yl)amino)-1-methylcyclohexan-1-ol] | 1.9 nM |
| CC(=O)N1CC[C@H](Nc2nc(N)c3c(-c4ccc5nccn5n4)c(F)cn3n2)[C@H](F)C1 [Compound 38, 1-((3R,4S)-4-((4-Amino-6-fluoro-5-(imidazo[1,2-b]pyridazin-6-yl)pyrrolo [2,1-f][1,2,4]triazin-2-yl)amino)-3-fluoropiperidin-1-yl)ethan-1-one] | 3.4 nM |
| CNc1nc(N[C@H]2CCN(C(C)=O)C[C@H]2F)nn2cc(F)c(-c3ccc4nnn(CC(F)F)c4n3)c12 [Compound 288, 1-((3R,4S)-4-((5-(3-(2,2-Difluoroethyl)-3H-[1,2,3]triazolo[4,5-b]pyridin-5-yl)-6-fluoro-4-(methylamino)pyrrolo[2,1-f][1,2,4]triazin-2-yl)amino)-3-fluoropiperidin-1-yl)ethan-1-one] | 2.4 nM |
| CN1CC[C@@H](Nc2nc(N)c3c(-c4ccc5nccn5n4)c(F)cn3n2)C(F)(F)C1 [Compound 40, (R)—N2-(3,3-Difluoro-1-methylpiperidin-4-yl)-6-fluoro-5-(imidazo[1,2-b]pyridazin-6-yl)pyrrolo[2,1-f][1,2,4]triazine-2,4-diamine] | 2.7 nM |

Continued by falling IC50, values first:

| IC50 | Compound |
| --- | --- |
| 15.8 nM | CNc1nc(N[C@H]2CCN(C3COC3)C[C@H]2F)nn2ccc(-c3ccc4nc(C)n(CCF)c4n3)c12 [Compound 157, N^2-((3R,4S)-3-Fluoro-1-(oxetan-3-yl)piperidin-4-yl)-5-(3-(2-fluoroethyl)-2-methyl-3H-imidazo[4,5-b]pyridin-5-yl)-N^4-methylpyrrolo[2,1-f][1,2,4]triazine-2,4-diamine] |
| 11.2 nM | CNc1nc(N[C@H]2CCN(C)C[C@H]2F)nn2ccc(-c3ccc4nnn(CCCF)c4n3)c12 [Compound 333, N^2-((3R,4S)-3-Fluoro-1-methylpiperidin-4-yl)-5-(3-(3-fluoropropyl)-3H-[1,2,3]triazolo[4,5-b]pyridin-5-yl)-N^4-methylpyrrolo[2,1-f][1,2,4]triazine-2,4-diamine] |
| 6.4 nM | CNc1nc(N[C@H]2CCN(C3COC3)C[C@H]2F)nn2ccc(-c3ccc4nc(C)n(C(F)F)c4n3)c12 [Compound 135, 5-(3-(Difluoromethyl)-2-methyl-3H-imidazo[4,5-b]pyridin-5-yl)-N^2-((3R,4S)-3-fluoro-1-(oxetan-3-yl)piperidin-4-yl)-N^4-methylpyrrolo[2,1-f][1,2,4]triazine-2,4-diamine] |
| 4.2 nM | CC(=O)N1CC[C@H](Nc2nc(N)c3c(-c4ccc5nc(C)n(CCF)c5n4)c(F)cn3n2)[C@H](F)C1 [Compound 144, 1-((3R,4S)-4-((4-Amino-6-fluoro-5-(3-(2-fluoroethyl)-2-methyl-3H-imidazo [4,5-b]pyridin-5-yl)pyrrolo[2,1-f][1,2,4]triazin-2-yl)amino)-3-fluoropiperidin-1-yl)ethan-1-one] |
| 3.4 nM | Cc1nc2ccc(-c3ccn4nc(N[C@@H]5CCN(C6COC6)C[C@@H]5F)nc(N)c34)nc2n1CCF [Compound 141, N^2-((3S,4R)-3-Fluoro-1-(oxetan-3-yl)piperidin-4-yl)-5-(3-(2-fluoroethyl)-2-methyl-3H-imidazo[4,5-b]pyridin-5-yl)pyrrolo[2,1-f][1,2,4]triazine-2,4-diamine] |
| 2.2 nM | CNc1nc(N[C@@H]2CCN(C3COC3)CC2(F)F)nn2cc(F)c(-c3ccc4nnn(CCF)c4n3)c12 [Compound 254, (R)—N^2-(3,3-Difluoro-1-(oxetan-3-yl)piperidin-4-yl)-6-fluoro-5-(3-(2-fluoroethyl)-3H-[1,2,3]triazolo[4,5-b]pyridin-5-yl)-N^4-methylpyrrolo[2,1-f][1,2,4]triazine-2,4-diamine] |
| 2 nM | CNc1nc(N[C@H]2CC[C@](C)(O)CC2)nn2cc(F)c(-c3ccc4nnn(CCF)c4n3)c12 [Compound 248, (1r,4r)-4-((6-Fluoro-5-(3-(2-fluoroethyl)-3H-[1,2,3]triazolo[4,5-b]pyridin-5-yl)-4-(methylamino)pyrrolo[2,1-f][1,2,4]triazin-2-yl)amino)-1-methylcyclohexan-1-ol] |
| 1.4 nM | CNc1nc(N[C@@H]2CCN(C3COC3)CC2(F)F)nn2cc(F)c(-c3ccc4nc(C)n(CCF)c4n3)c12 [Compound 168, (R)—N^2-(3,3-Difluoro-1-(oxetan-3-yl)piperidin-4-yl)-6-fluoro-5-(3-(2-fluoroethyl)-2-methyl-3H-imidazo[4,5-b]pyridin-5-yl)-N^4-methylpyrrolo[2,1-f][1,2,4]triazine-2,4-diamine] |
| 1 nM | CC(=O)N1CC[C@H](Nc2nc(N)c3c(-c4ccc5ncn(CCF)c5n4)ccn3n2)[C@H](F)C1 [Compound 115, 1-((3R,4S)-4-((4-Amino-5-(3-(2-fluoroethyl)-3H-imidazo[4,5-b]pyridin-5-yl)pyrrolo[2,1-f][1,2,4]triazin-2-yl)amino)-3-fluoropiperidin-1-yl)ethan-1-one] |
